# According to ChEMBL document CHEMBL4196033, “Potent hydrazone derivatives targeting esophageal cancer cells” (Eur J Med Chem, 2018):
# The source made the active and inactive calls. No cut-off for these calls is given here.
# Tests used:
# EC9706 [1] = test: Antiproliferative activity against human EC9706 cells after 72 hrs by MTT assay; type: functional, cell-based; conditions: EC9706, 72 h
# MGC-803 = test: Antiproliferative activity against human MGC803 cells after 72 hrs by MTT assay; type: functional, cell-based; conditions: MGC-803, 72 h
# ECa-109 cell line [2] = test: Antiproliferative activity against human EC109 cells after 24 hrs by MTT assay; type: functional, cell-based; conditions: ECa-109, 24 h
# ECa-109 cell line [3] = test: Antiproliferative activity against human EC109 cells after 48 hrs by MTT assay; type: functional, cell-based; conditions: ECa-109, 48 h
# ECa-109 cell line [4] = test: Anticlonogenic activity against human EC109 cells after 7 days by crystal violet staining based assay; type: functional, cell-based
# EC9706 [5] = test: Cell cycle arrest in human EC9706 cells assessed as decrease in G2/M phase population at 4 uM after 24 hrs by propidium iodide staining based flow cytometry relative to control; type: functional
# EC9706 [6] = test: Upregulation of p27 protein expression in human EC9706 cells at 2 uM after 24 to 48 hrs by Western blot analysis relative to control; type: functional
# EC9706 [7] = test: Upregulation of p27 protein expression in human EC9706 cells at 4 uM after 24 to 48 hrs by Western blot analysis relative to control; type: functional
# EC9706 [8] = test: Induction of morphological changes in human EC9706 cells assessed as cell rounding after 48 hrs by Hoechst 33342 staining based fluorescence microscopic method; type: functional
# EC9706 [9] = test: Induction of morphological changes in human EC9706 cells assessed as chromatin condensation after 48 hrs by Hoechst 33342 staining based fluorescence microscopic method; type: functional, cell-based
# ECa-109 cell line [10] = test: Induction of morphological changes in human EC109 cells assessed as apoptotic body formation after 48 hrs by Hoechst 33342 staining based fluorescence microscopic method; type: functional, cell-based
# EC9706 [11] = test: Induction of apoptosis in human EC9706 cells assessed as early apoptotic cells at 4 uM after 48 hrs by Annexin V-FITC/propidium iodide staining based flow cytometry (reference value: 0.68 to 1.58%); type: functional
# ECa-109 cell line [12] = test: Induction of apoptosis in human EC109 cells assessed as live cells at 2 uM after 48 hrs by Annexin V-FITC/propidium iodide staining based flow cytometry (reference value: 95.2 to 99%); type: functional
# ECa-109 cell line [13] = test: Induction of apoptosis in human EC109 cells assessed as necrotic cells at 2 uM after 48 hrs by Annexin V-FITC/propidium iodide staining based flow cytometry (reference value: 0.74 to 1.18%); type: functional
# ECa-109 cell line [14] = test: Induction of apoptosis in human EC109 cells assessed as live cells at 8 uM after 48 hrs by Annexin V-FITC/propidium iodide staining based flow cytometry (reference value: 95.2 to 99%); type: functional
# ECa-109 cell line [15] = test: Induction of apoptosis in human EC109 cells assessed as early apoptotic cells at 8 uM after 48 hrs by Annexin V-FITC/propidium iodide staining based flow cytometry (reference value: 0.43 to 1.15%); type: functional
# EC9706 [16] = test: Induction of apoptosis in human EC9706 cells assessed as live cells at 4 uM after 48 hrs in presence of caspase inhibitor Z-VAD-FMK by Annexin V-FITC/propidium iodide staining based flow cytometry (reference value: 95.7%); type: functional
# EC9706 [17] = test: Induction of apoptosis in human EC9706 cells assessed as live cells at 8 uM after 48 hrs in presence of caspase inhibitor Z-VAD-FMK by Annexin V-FITC/propidium iodide staining based flow cytometry (reference value: 95.7%); type: functional
# EC9706 [18] = test: Induction of apoptosis in human EC9706 cells assessed as early apoptotic cells at 8 uM after 48 hrs in presence of caspase inhibitor Z-VAD-FMK by Annexin V-FITC/propidium iodide staining based flow cytometry (reference value: 0.33%); type: functional
# EC9706 [19] = test: Induction of apoptosis in human EC9706 cells assessed as necrotic cells at 8 uM after 48 hrs in presence of caspase inhibitor Z-VAD-FMK by Annexin V-FITC/propidium iodide staining based flow cytometry (reference value: 1.2%); type: functional
# ECa-109 cell line [20] = test: Induction of apoptosis in human EC109 cells assessed as live cells at 4 uM after 48 hrs in presence of caspase inhibitor Z-VAD-FMK by Annexin V-FITC/propidium iodide staining based flow cytometry (reference value: 96.2%); type: functional
# ECa-109 cell line [21] = test: Induction of apoptosis in human EC109 cells assessed as late apoptotic cells at 4 uM after 48 hrs in presence of caspase inhibitor Z-VAD-FMK by Annexin V-FITC/propidium iodide staining based flow cytometry (reference value: 0.01%); type: functional
# ECa-109 cell line [22] = test: Induction of apoptosis in human EC109 cells assessed as necrotic cells at 8 uM after 48 hrs in presence of caspase inhibitor Z-VAD-FMK by Annexin V-FITC/propidium iodide staining based flow cytometry (reference value: 2.37%); type: functional
# EC9706 [23] = test: Induction of ROS generation in human EC9706 cells at 2 to 4 uM after 24 hrs in presence of anti-oxidant NAC by DCFH-DA staining based flow cytometry; type: functional, cell-based
# EC9706 [24] = test: Induction of apoptosis in human EC9706 cells at 2 to 4 uM after 48 hrs in presence of anti-oxidant NAC by Annexin V-FITC/propidium iodide staining based flow cytometry; type: functional, cell-based
# EC9706 [25] = test: Induction of apoptosis in human EC9706 cells assessed as increase in cleaved PARP protein expression after 48 hrs by Western blot analysis; type: functional, cell-based
# ECa-109 cell line [26] = test: Induction of apoptosis in human EC109 cells assessed as increase in cleaved caspase-3 protein expression after 48 hrs by Western blot analysis; type: functional, cell-based
# ECa-109 cell line [27] = test: Induction of apoptosis in human EC109 cells assessed as decrease in Bcl2 protein expression after 48 hrs by Western blot analysis; type: functional, cell-based
# EC9706 [28] = test: Induction of apoptosis in human EC9706 cells assessed as decrease in Bcl2 protein expression after 48 hrs by Western blot analysis; type: functional, cell-based
# EC9706 [29] = test: Induction of apoptosis in human EC9706 cells assessed as increase in Bax protein expression after 48 hrs by Western blot analysis; type: functional, cell-based
# EC9706 [30] = test: Induction of apoptosis in human EC9706 cells assessed as decrease in Bid protein expression at 2 to 8 uM after 48 hrs by Western blot analysis; type: functional, cell-based
# EC9706 [31] = test: Effect on Prxs-1 protein expression in human EC9706 cells at 2 to 8 uM after 48 hrs by Western blot analysis; type: functional, cell-based
# ECa-109 cell line [32] = test: Effect on Prxs-3 protein expression in human EC109 cells at 2 to 8 uM after 48 hrs by Western blot analysis; type: functional, cell-based
# ECa-109 cell line [33] = test: Effect on Prxs-5 protein expression in human EC109 cells at 2 to 8 uM after 48 hrs by Western blot analysis; type: functional, cell-based
# GES1 [34] = test: Antiproliferative activity against human GES-1 cells after 24 hrs by MTT assay; type: cell-based; conditions: GES1, 24 h
# GES1 [35] = test: Antiproliferative activity against human GES-1 cells after 72 hrs by MTT assay; type: cell-based; conditions: GES1, 72 h
# Mus musculus [36] = test: Acute toxicity in C57BL/6 mouse assessed as mortality at 2 g/kg, ig measured for 2 weeks; type: organism-based; conditions: in vivo, po, 2000 mg/kg, 336 h
# Mus musculus [37] = test: Acute toxicity in C57BL/6 mouse assessed as change in body weight at 2 g/kg, ig measured for 2 weeks; type: organism-based; conditions: in vivo, po, 2000 mg/kg, 336 h
compound,measurement,setting,value
COc1ccc(/C=N/NC(=O)c2cccc(S(=O)(=O)N3CCOCC3)c2)c(O)c1,IC50,EC9706 [1],1.09 µM
same,IC50,MGC-803,2.07 µM
same,IC50,ECa-109 cell line [2],> 20 µM
same,IC50,ECa-109 cell line [3],11.3 µM
same,Activity,ECa-109 cell line [4],Active
same,fold change (FC),EC9706 [5],0.3
same,fold change (FC),EC9706 [6],1.3
same,fold change (FC),EC9706 [7],1.4
same,Activity,EC9706 [8],Dose-dependent effect
same,Activity,EC9706 [9],Dose-dependent effect
same,Activity,ECa-109 cell line [10],Dose-dependent effect
same,Activity,EC9706 [11],10.8 - 29.9%
same,Activity,ECa-109 cell line [12],79.1%
same,Activity,ECa-109 cell line [13],2.64%
same,Activity,ECa-109 cell line [14],25.2 - 26.7%
same,Activity,ECa-109 cell line [15],18.7 - 25%
same,Activity,EC9706 [16],42.1%
same,Activity,EC9706 [17],31%
same,Activity,EC9706 [18],16.4%
same,Activity,EC9706 [19],17%
same,Activity,ECa-109 cell line [20],49%
same,Activity,ECa-109 cell line [21],21.1%
same,Activity,ECa-109 cell line [22],17.6%
same,Activity,EC9706 [23],inactive
same,Activity,EC9706 [24],inactive
same,Activity,EC9706 [25],Dose-dependent effect
same,Activity,ECa-109 cell line [26],Dose-dependent effect
same,Activity,ECa-109 cell line [27],Dose-dependent effect
same,Activity,EC9706 [28],Dose-dependent effect
same,Activity,EC9706 [29],Dose-dependent effect
same,Activity,EC9706 [30],Active
same,Activity,EC9706 [31],Active
same,Activity,ECa-109 cell line [32],Active
same,Activity,ECa-109 cell line [33],Active
same,IC50,GES1 [34],> 80 µM
same,IC50,GES1 [35],14.4 µM
same,Activity,Mus musculus [36],Non-Toxic
same,Activity,Mus musculus [37],Non-Toxic
